In a compilation of properties of binary mixtures (doi:10.1007/s10953-014-0273-1):

Assay: xn = mol fraction of the nth substance listed
Conditions: 101 kPa

CCCC[n+]1ccn(C)c1.F[B-](F)(F)F + CO
viscosity [mPa·s]
Conditions | x2 = 0 | x2 = 0.1003 | x2 = 0.2047 | x2 = 0.2997 | x2 = 0.3996 | x2 = 0.504 | x2 = 0.6004 | x2 = 0.6992 | x2 = 0.7997 | x2 = 0.9001
303.15 K | 84.2 | 54.2 | 34.6 | 23.54 | 15.02 | 9.42 | – | 3.67 | 2.118 | 1.141
313.15 K | – | – | – | 16.93 | 11.32 | 7.4 | 4.86 | 3.03 | – | –
323.15 K | 35.5 | – | 17.81 | 12.9 | 8.94 | 6.02 | – | 2.537 | 1.527 | 0.895
333.15 K | 25.01 | 18.68 | 13.6 | 10.13 | – | 5.03 | 3.42 | 2.195 | 1.337 | 0.765

CCCC[n+]1ccn(C)c1.F[B-](F)(F)F + CC#N
viscosity [mPa·s]
Conditions | x2 = 0 | x2 = 0.1001 | x2 = 0.2034 | x2 = 0.3011 | x2 = 0.4013 | x2 = 0.5 | x2 = 0.6018 | x2 = 0.7 | x2 = 0.7997 | x2 = 0.9001
303.15 K | – | 55.2 | – | 23.74 | 14.97 | 9.25 | 5.34 | 3 | 1.611 | 0.792
313.15 K | 53 | 36.5 | 24.4 | 16.9 | – | 7.14 | – | 2.522 | 1.389 | 0.707
323.15 K | – | 25.36 | 17.76 | – | 8.57 | – | 3.58 | 2.155 | – | 0.636
333.15 K | 25.01 | 18.43 | 13.23 | 9.83 | 6.83 | 4.69 | 3.03 | 1.877 | 1.103 | 0.579

CN1CCCC1=O + CCCC[n+]1ccn(C)c1.F[B-](F)(F)F
Conditions | viscosity [mPa·s]
303.15 K, x1 = 1 | 1.551

CO + CCCC[n+]1ccn(C)c1.F[B-](F)(F)F
x1 = 1
Conditions | viscosity [mPa·s]
313.15 K | 0.455
323.15 K | 0.401

CC#N + CCCC[n+]1ccn(C)c1.F[B-](F)(F)F
x1 = 1
Conditions | viscosity [mPa·s]
303.15 K | 0.329
313.15 K | 0.3
323.15 K | 0.276

CCCC[n+]1ccn(C)c1.F[B-](F)(F)F + CN1CCCC1=O
viscosity [mPa·s]
Conditions | x2 = 0 | x2 = 0.0999 | x2 = 0.2001 | x2 = 0.3028 | x2 = 0.4 | x2 = 0.4999 | x2 = 0.5998 | x2 = 0.7001 | x2 = 0.8003 | x2 = 0.9001
303.15 K | – | – | – | – | – | 17.17 | 11.43 | 7.37 | 4.64 | 2.9
313.15 K | 53 | 41 | 31.6 | 23.77 | 17.42 | 12.5 | 8.61 | 5.75 | 3.76 | 2.409
323.15 K | – | 28.2 | 22.15 | 17.13 | 13 | 9.47 | 6.73 | – | 3.13 | 1.991
333.15 K | 25.01 | 20.3 | 16.25 | 12.83 | 9.93 | 7.46 | 5.37 | 3.79 | 2.66 | 1.722

CCCC[n+]1ccn(C)c1.F[B-](F)(F)F + CC(=O)N(C)C
viscosity [mPa·s]
Conditions | x2 = 0 | x2 = 0.1006 | x2 = 0.2004 | x2 = 0.3005 | x2 = 0.4011 | x2 = 0.5002 | x2 = 0.5998 | x2 = 0.6996 | x2 = 0.8002 | x2 = 0.8999
303.15 K | 84.2 | 59 | 41.6 | 29 | 19.38 | 12.88 | 8.32 | 4.99 | 2.95 | 1.679
313.15 K | 53 | 38.5 | 28 | 20.16 | 14 | – | 6.32 | 4 | 2.44 | –
323.15 K | 35.5 | 26.6 | 19.88 | 14.62 | 10.55 | 7.37 | – | – | 2.069 | –
333.15 K | 25.01 | 19.27 | 14.76 | 11.08 | 8.15 | 5.87 | 4.09 | 2.77 | – | 1.1

CC(=O)N(C)C + CCCC[n+]1ccn(C)c1.F[B-](F)(F)F
x1 = 1
Conditions | viscosity [mPa·s]
303.15 K | 0.882
323.15 K | 0.69
333.15 K | 0.618
